The results in this text go back to ChEMBL document CHEMBL4699595, “Ganoweberianones A and B, Antimalarial Lanostane Dimers from Cultivated Fruiting Bodies of the Basidiomycete Ganoderma weberianum” (J Nat Prod, 2020).

A word on the IC50: it is the concentration needed to halve the response being measured.

Data set [1] concerns Vero. In words: Cytotoxicity against African green monkey Vero cells assessed as reduction in cell viability by tryphan blue exclusion method. In kind it is cell-based. The settings on record: Chlorocebus sabaeus.
Data set [2] has as its system Mycobacterium tuberculosis. Briefly: Antimycobacterial activity against Mycobacterium tuberculosis H37Ra ATCC 25177. The data set is classed as functional, organism-based.
Data set [3] can be described thus: Selectivity index, ratio of IC50 for cytotoxicity against African green monkey Vero cells to IC50 for antimalarial activity against multi drug-resistant Plasmodium falciparum K1 infected in human erythrocytes. The data set is classed as toxicity, cell-based. The settings on record: read-out: Ratio IC50.
The test system of data set [4] is Plasmodium falciparum. Briefly: Antimalarial activity against multi drug-resistant Plasmodium falciparum K1 infected in human erythrocytes assessed as reduction in parasite growth preincubated for 24 hrs followed by [3H]hypoxanthine addition and measured after 18 hrs by scintillation counting method. The data set is classed as functional, organism-based. The settings on record: K1, Erythrocyte.

Active and inactive are the calls of the source. The calls are words filed in the database; no cut-off is given here.

As to `C[C@H](CC[C@H](OC(=O)[C@@H](C)CC(=O)C[C@@H](C)[C@H]1C[C@@H](O)[C@@]2(C)C3=C(C(=O)C[C@]12C)[C@@]1(C)CC[C@@H](O)C(C)(C)[C@@H]1CC3=O)[C@](C)(O)CO)[C@H]1CC[C@@]2(C)C3=CC[C@H]4C(C)(C)C(=O)CC[C@]4(C)C3=CC[C@]12C`, the IC50 in data set [1] worked out at 10 µM; in data set [4], 0.46 µM. Also, the outcome in data set [2] was inactive. For the same compound, in data set [3], the selectivity ratio is 2.2.

As for `C[C@H](CC(=O)C[C@H](C)C(=O)O)[C@H]1C[C@@H](O)[C@@]2(C)C3=C(C(=O)C[C@]12C)[C@@]1(C)CCC(=O)[C@@](C)(CO)[C@@H]1CC3=O`, the IC50 in data set [1] was at least 87 µM; in data set [4], at least 17 µM. For the same compound, the outcome in data set [2] was inactive.

On to `CC(=O)O[C@@H]1C(=O)C2=C(C(=O)C[C@H]3C(C)(C)C(=O)CC[C@]23C)[C@]2(C)[C@H](O)C[C@H]([C@H](C)CC(=O)C[C@H](C)C(=O)O)[C@@]12C`, for which the values for the IC50 in data set [1] and in data set [4] were at least 87 µM and at least 17 µM, respectively. The outcome in data set [2] was inactive.

`C[C@H](CC(=O)C[C@H](C)C(=O)O)[C@H]1C[C@@H](O)[C@@]2(C)C3=C(C(=O)C[C@]12C)[C@@]1(C)CC[C@@H](O)C(C)(C)[C@@H]1CC3=O`: the IC50 is at least 87 µM in data set [1] and at least 17 µM in data set [4]. The outcome in data set [2] was inactive.

As to `C[C@H](CC(=O)C[C@H](C)C(=O)O)[C@H]1C[C@@H](O)[C@@]2(C)C3=C(C(=O)C[C@]12C)[C@@]1(C)CCC(=O)C(C)(C)[C@@H]1CC3=O`, the IC50 in data set [1] is at least 87 µM; in data set [4], at least 17 µM. The outcome in data set [2] was inactive.

As for `C[C@H](CC(=O)C[C@H](C)C(=O)O)[C@H]1C[C@@H](O)[C@@]2(C)C3=C(C(=O)[C@@H](O)[C@]12C)[C@@]1(C)CCC(=O)C(C)(C)[C@@H]1CC3=O`, the IC50 in data set [1] is at least 87 µM; in data set [4] it was at least 17 µM. The outcome in data set [2] was inactive.

Regarding `C[C@H](CC[C@H](OC(=O)[C@@H](C)CC(=O)C[C@@H](C)[C@H]1C[C@@H](O)[C@@]2(C)C3=C(C(=O)C[C@]12C)[C@@]1(C)CCC(=O)C(C)(C)[C@@H]1CC3=O)[C@](C)(O)CO)[C@H]1CC[C@@]2(C)C3=CC[C@H]4C(C)(C)C(=O)CC[C@]4(C)C3=CC[C@]12C`, the IC50 in data set [1] was 0.21 µM; in data set [4] it was 0.05 µM. In data set [2], the result was inactive. In addition, the selectivity ratio in data set [3] came to 4.2.
